Results published in patent publication US7855182B2, “Materials and methods for treatment of cancer” (The Institute of Cancer Research; Royal Cancer Hospital, priority 2004, dated 2010).

Experiments:
GPC5 = GPC5 expression in PC3M tumours grown as subcutaneous implants in treated mice; type: in vivo, athymic nude mice; details: preliminary
Method: (§1) To measure the amount of mature mRNA copies of GPC5 and GPC6 the probe was designed across the exon 1-exon 2 boundary and the exon 7-exon 8 boundary respectively. Applied Biosystems' Predeveloped GAPDH (Glyceraldehyde 3-phosphate dehydrogenase) was used as an endogenous control. 25 μL multiplex PCR reactions were run using 2× Universal TaqMan® Master Mix (Applied Biosystems Pt No. 4304437), the concentration of primers and probes shown in Table 1 and 10 ng of DNA or cDNA. These samples were run in triplicate under standard operating conditions on an ABI7700 SDS TaqMan® Machine (Applied Biosystems, CA). […] Thus, the amount of GPC5 and GPC6 was measured relative to either normal genomic DNA in the case of genomic measurements and to normal muscle in the case of expression measurements. Normal genomic DNA was extracted from the blood of a healthy donor, normal muscle cDNA was produced from RNA extracted from a pool of 11 normal muscle biopsies.
Previous gene profiling studies following treatment of K562 cells with WT1 directed ASOs, identified GPC5 as a putative WT1 target gene (manuscript in preparation). Downregulation of GPC5 expression following WT1 antisense treatment and correlating with reduced WT1 expression was confirmed in independent experiments (see FIG. 6). […]

WT1 = WT1 expression in PC3M tumours grown as subcutaneous implants in treated mice; type: in vivo, athymic nude mice; details: PC3M prostate cancer subcutaneous implants, mice treated with WT1 antisense; preliminary, data not shown
Method: The primer pair and probe for the quantification of WT1 were designed using the Primer Express program (Applied Biosystems) according to the recommended guidelines and as described above.: WT1—Forward primer, 5′-[…]-3′, reverse primer, 5′, […]-3′, and probe, 5′-[…]-3′. Each assay sample was analyzed in triplicate as above, and multiplexed to facilitate the measurement of gene expression levels relative to GAPDH (in vivo tumour samples) or 18 s ribosomal RNA expression (ribosomal RNA control reagents, Applied Biosystems) (in vitro cell line samples) using the standard curve method.
Previous gene profiling studies following treatment of K562 cells with WT1 directed ASOs, identified GPC5 as a putative WT1 target gene (manuscript in preparation). Downregulation of GPC5 expression following WT1 antisense treatment and correlating with reduced WT1 expression was confirmed in independent experiments (see FIG. 6). […] Direct transcriptional regulation of GPC5 by WT1 is likely since GPC5 has two WT1 consensus binding sites in its promoter region.

HL-60 = assay: Clonogenic cell survival assay in soft agar, HL-60 control leukaemic cell line not expressing GPC5; type: cell-based; details: HL-60 cells, compared to sham-treated
Method: In this assay, cells are grown at low density in suspension in soft agar following treatment. Each colony formed derives from a single surviving cell. 2 ml aliquots of diluted cells were added to polystyrene tubes (Elkay Products (UK) Ltd., Basingstoke, Hampshire, UK) containing 3 ml of medium supplemented with 20% FCS and 0.2% Agar Noble (DIFCO Laboratories, Detroit, Mich.), incubated at 37° C., and colonies containing at least 32 cells counted after 14 days. The number of colonies formed following drug treatment were compared to the number obtained following sham electroporation or a control scrambled oligonucleotide and expressed as % control treatment. In a number of separate experiments, control plating efficiencies ranged from 22-38%, with 800-1600 cells typically plated. In addition, cells from the dilution series (approx 10^3-10^4 cells/ml) were allowed to grow up in suspension culture in parallel for 3-5 days in order to confirm cytotoxicity.
Two active compounds, ISIS 276107 and ISIS 276119, were identified in this primary screen, reducing GPC5 levels to less than 30% control levels and reducing cell survival by greater than 80% (FIG. 3A). […] FIGS. 3B and C show the effects of ISIS 276107 and a control compound (ISIS 276124) at varying concentrations in the same assay.

GPC5 mRNA = GPC5 mRNA quantification (TaqMan) after electroporation of antisense oligonucleotides into K562 cells; type: cell-based, human
Method: as §1, with “biopsies. […]” for “biopsies.”

K562 cells = assay: Clonogenic cell survival assay in soft agar, K562 cells; type: cell-based, human
Method: Antisense or control oligonucleotides were dissolved in PBS and introduced into K562 cells by low voltage electroporation: 40 μl of appropriately diluted ASOs were combined with 360 μl of cell suspension at 2×10^7 cells/ml and cells were electroporated (Bio-Rad Gene Pulser® II Electroporation system with Pulse Controller Plus capacitance extender accessory module, Bio-Rad Laboratories Ltd, Hemel Hempstead, Herts, UK) using 300V and a capacitor value of 1000 μF, and diluted to 10 ml with complete medium. From each sample appropriate duplicate aliquots of cells were serially diluted in complete medium for assessment of cytotoxicity while the remaining cells were incubated at 37° C. for 24 hours ana RNA extracted for quantification of GPC5 and/or WT1 expression levels.
In this assay, cells are grown at low density in suspension in soft agar following treatment. […] 2 ml aliquots of diluted cells were added to polystyrene tubes (Elkay Products (UK) Ltd., Basingstoke, Hampshire, UK) containing 3 ml of medium supplemented with 20% FCS and 0.2% Agar Noble (DIFCO Laboratories, Detroit, Mich.), incubated at 37° C., and colonies containing at least 32 cells counted after 14 days. The number of colonies formed following drug treatment were compared to the number obtained following sham electroporation or a control scrambled oligonucleotide and expressed as % control treatment. […]

## CC(=O)O[C@@]12CO[C@@H]1C[C@H](O)[C@@]1(C)C(=O)[C@H](O)C3=C(C)[C@@H](OC(=O)[C@H](O)[C@@H](NC(=O)OC(C)(C)C)c4ccccc4)C[C@@](O)([C@@H](OC(=O)c4ccccc4)[C@H]21)C3(C)C [docetaxol]
GPC5; PC3M tumours, mice treated with 15 mg/kg
  increase in GPC5 expression: 5 fold

## ASWT1exon5: WT1 antisense oligonucleotide targeting WT1 exon 5, GCCCCTTCTGTCCATTTCACT (SEQ ID NO: 26)
WT1
  decrease in WT1 expression levels: 50%
GPC5; PC3M prostate cancer subcutaneous implants, mice treated with WT1 antisense, data not shown
  reduction in GPC5 expression: 30%

## ISIS 276107: 20 mer 2'-MOE chimeric phosphorothioate GPC5 antisense oligonucleotide, CAGCCCCCTGACAGCTCCCA (SEQ ID NO: 23) (all phosphorothioate, sugars by position and methylation of C not given here; 2'-MOE wings flank eight-deoxy central gap)
HL-60
  colony number following treatment: no decrease

## ISIS 276124: control oligonucleotide, TGGATTTGCTTTACACATCACT (SEQ ID NO: 25)
GPC5 mRNA
  effect on GPC5 expression / GPC5 levels: not to affect
K562 cells
  effect on cell viability / cell survival: not to affect
HL-60
  colony number following treatment: no decrease
